Results taken from patent US20170087109A1, “COMPOSITIONS AND METHODS FOR TREATING BLACKHEADS” (Johnson & Johnson Consumer Inc., priority 2015, published 2017).

Experiment: Blackhead dissolution test (extracted blackheads submerged in test material, graded by expert inspection)
Design: species or system human
Conditions: blackhead submerged in approximately 100 microliters test material for 24 hours at room temperature, no agitation; 1 = not dissolved, 7 = completely dissolved
Experimental: A series of compounds and compositions were tested for their ability to dissolve blackheads as follows.
The blackheads were extracted from human volunteers using a comedone extracator. They were placed in a 24 or 96 well plate and submerged into approximately 100 microliters of each test material listed in Table 1 for 24 hours at room temperature ([…]). Gray color cards (GretagMacbeth ColorChecker™ Color Rendition Chart-Neutral 8 (0.23) CC20) were used underneath and measurements were made using a WILD M10 microscope at 40x, no agitation. The plates were covered with parafilm to avoid evaporation, and each test solution was removed at 24 hours and allowed to dry overnight. The amount of blackhead dissolved was graded by expert inspection on a scale from 1-7, 1 being not dissolved, and 7 being completely dissolved as shown in Table 1.

[Na+].[OH-] [0.1M NaOH, NaOH, reference compound]
Outcome at 24 hours (amount of blackhead dissolved, grade on scale 1-7): 4.33 ± 0.58

CCCCCCCCCCCCCC(=O)O [10% Myristic acid in KOH, Myristic acid]
Outcome at 24 hours (amount of blackhead dissolved, grade on scale 1-7): 6.00 ± 0.01

CCCCCCCC/C=C\CCCCCCCC(=O)O [10% Oleic acid in KOH, Oleic acid]
Outcome at 24 hours (amount of blackhead dissolved, grade on scale 1-7): 7.00 ± 0.01
